“Also recorded” adds a separate entry of the source.
Experiments:
mice [1] = assay: Ethanol-induced impairment of context-dependent fear conditioning; format: in vivo
Text: (§1) The principle of Pavlovian fear conditioning is as follows. During the training procedure mice are exposed to a novel context (context 1), consisting of an observation chamber with defined lightning, odor, background noise and geometry. After exploring this novel environment for 180 s the animals are exposed to a tone for 30 s followed by a mild electric foot shock for 2 s. On the basis of associative learning mice display aversive freezing behavior during a memory test consisting of re-expose to the conditioning context 24 h after the training. […] Tone-dependent fear memories can be analyzed by presenting the tone in context 2. Freezing is an inborn behavior that rodents express in threatening situations. It is defined as the complete absence of movement, except respiration and heartbeat. […] Therefore, freezing behavior is commonly used to quantify the amount of learning.

mice [2] = assay: Context- and tone-dependent fear conditioning, intra-hippocampal (i.h.) injection; format: in vivo; settings: vs. vehicle
Text: The principle of Pavlovian fear conditioning is as follows. During the training procedure mice are exposed to a novel context (context 1), consisting of an observation chamber with defined lightning, odor, background noise and geometry. After exploring this novel environment for 180 s the animals are exposed to a tone for 30 s followed by a mild electric foot shock for 2 s. On the basis of associative learning mice display aversive freezing behavior during a memory test consisting of re-expose to the conditioning context 24 h after the training. […] Tone-dependent fear memories can be analyzed by presenting the tone in context 2. Freezing is an inborn behavior that rodents express in threatening situations. It is defined as the complete absence of movement, except respiration and heartbeat. Whereas mice display no freezing behavior during training, a significant increase of freezing behavior is observed upon re-exposure to the conditioned context only. Therefore, freezing behavior is commonly used to quantify the amount of learning. Context-dependent fear conditioning requires the hippocampus whereas tone-dependent fear conditioning relies on an intact amygdala (Kim and Fanselow, 1992).

C57BL/6J mice = assay: Context- and tone-dependent Pavlovian fear conditioning, icv. injection; format: in vivo; settings: vs. vehicle
Text: A fundamental type of learning is associative learning that can be analyzed in rodents using the pavlovian fear conditioning paradigm (Fendt and Fanselow, 1999; Fischer et al., 2003). As fear conditioning is a robust and commonly used method to analyze learning and allows to delineate the involvement of distinct brain structures in the learning process, we choose this paradigm to investigate the effect of reveratrol on learning. The principle of Pavlovian fear conditioning is as follows. During the training procedure mice are exposed to a novel context (context 1), consisting of an observation chamber with defined lightning, odor, background noise and geometry. After exploring this novel environment for 180 s the animals are exposed to a tone for 30 s followed by a mild electric foot shock for 2 s. On the basis of associative learning mice display aversive freezing behavior during a memory test consisting of re-expose to the conditioning context 24 h after the training. […] Tone-dependent fear memories can be analyzed by presenting the tone in context 2. Freezing is an inborn behavior that rodents express in threatening situations. It is defined as the complete absence of movement, except respiration and heartbeat. Whereas mice display no freezing behavior during training, a significant increase of freezing behavior is observed upon re-exposure to the conditioned context only. Therefore, freezing behavior is commonly used to quantify the amount of learning. C57BL/6J mice were anesthetized and microcannula (PlasticOne; AP −0 mm, lateral 1 mm, depth 2 mm) were implanted into the lateral brain ventricles (icv). […] The animals were trained by context- and tone-dependent fear conditioning 24 h after the last icv. injection and memory retention was analyzed the following day (see FIG. 1A). […] The mice were tested for memory retention 24 h later by re-exposure to the conditioning context.

CK-p25 mice = assay: p25-mediated cognitive decline, fear conditioning in CK-p25 mice; format: in vivo; settings: p25 induced for 5 weeks, icv. 5 μg/mouse 2-3×/week, vs. vehicle
Text: as §1

Sirt1 deacetylase = target: T1, Sirt1 deacetylase (Homo sapiens, UniProt Q96EB6); settings: Howitz et al., 2003; Wood et al., 2004; cited from earlier work
T1 sequence (Q96EB6 1-747): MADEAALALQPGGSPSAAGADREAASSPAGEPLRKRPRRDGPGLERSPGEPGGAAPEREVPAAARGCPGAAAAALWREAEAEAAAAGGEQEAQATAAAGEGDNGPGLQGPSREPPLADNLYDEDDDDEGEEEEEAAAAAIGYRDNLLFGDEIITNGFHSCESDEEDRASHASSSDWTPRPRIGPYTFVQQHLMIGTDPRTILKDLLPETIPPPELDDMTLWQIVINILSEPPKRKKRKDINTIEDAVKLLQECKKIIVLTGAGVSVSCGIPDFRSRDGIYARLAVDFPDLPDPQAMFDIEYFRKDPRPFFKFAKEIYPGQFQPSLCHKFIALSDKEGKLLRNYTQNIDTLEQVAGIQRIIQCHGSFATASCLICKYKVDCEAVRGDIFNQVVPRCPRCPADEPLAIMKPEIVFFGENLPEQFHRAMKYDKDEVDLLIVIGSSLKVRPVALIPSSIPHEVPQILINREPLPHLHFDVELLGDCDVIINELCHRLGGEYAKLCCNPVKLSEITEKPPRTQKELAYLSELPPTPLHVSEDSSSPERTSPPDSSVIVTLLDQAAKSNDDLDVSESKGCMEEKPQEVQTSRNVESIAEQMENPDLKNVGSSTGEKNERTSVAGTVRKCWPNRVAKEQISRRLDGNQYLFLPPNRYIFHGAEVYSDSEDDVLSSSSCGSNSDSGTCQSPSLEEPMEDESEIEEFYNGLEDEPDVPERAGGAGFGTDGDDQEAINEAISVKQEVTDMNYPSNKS

[3] = icv. 5 μg/mouse for 7 consecutive days, training 24 h after last injection, memory test the following day
[4] = single icv. injection 5 μg/mouse immediately after training, test 24 h later

Structure (SMILES): CCO [ethanol]
- freezing behavior during the context-dependent memory test (impairment by ethanol) (mice [1]; ip. 33% ethanol/PBS immediately after training): impaired freezing behavior; also recorded: severe impaired freezing

Structure (SMILES): Oc1ccc(C=Cc2cc(O)cc(O)c2)cc1 [resveratrol, 3,5,4′-tri-hydroxystilbene]
- freezing behavior during the context-dependent memory test (mice [2]; i.h. 5 μg/mouse 4 h after the training): significantly enhanced freezing behavior
- freezing during the tone-dependent memory test (mice [2]; i.h. 5 μg/mouse immediately or 4 h after the training): not different among groups
- freezing behavior during the context-dependent memory test (C57BL/6J mice; [3]): significantly increased freezing behavior
- freezing behavior during the tone-dependent memory test (C57BL/6J mice; [3]): significantly increased freezing behavior
- freezing behavior during the context-dependent memory test (C57BL/6J mice; [4]): significantly increased freezing behavior; also recorded: significantly enhanced freezing
- freezing behavior during the tone-dependent memory test (C57BL/6J mice; [4]): significantly increased freezing behavior
- freezing behavior during the context-dependent memory test (prevention of ethanol-induced impairment) (mice [1]; ip. 30 mg/kg resveratrol in 33% ethanol/PBS immediately after training, compared with PBS and ethanol groups, 30 mg/kg): performed indistinguishable to mice injected only with PBS; also recorded: attenuated this effect
- freezing behavior, memory retention 24 h after fear conditioning (CK-p25 mice): significantly enhanced
- agonism of the Sirt1 deacetylase (Sirt1 deacetylase): potent agonist
